Measured values from patent US9958450B2, “L-glucose derivatives having fluorescent chromophore” (HIROSAKI UNIVERSITY, priority 2008, dated 2018).

Key:
[1] = system: acutely isolated substantia nigra pars reticulata neurons; experiment: Application of 2-NBDG or 2-NBDLG to acutely isolated neurons (normal fluorescence microscope); format: cell-based, mouse; settings: 200 μM solution administered for 1 minute, 36 to 37° C., fluorescence images at 10 and 30 minutes after initiation of washing
Protocol: C57BL/6J mice at the age of 13 to 15 days after birth (juvenile period) or at the age of 33 to 45 days after birth (maturation period) were deeply anesthetized with urethane (i.p. 1.6 g/kg) and decapitated according to a common procedure. Thereafter, the brain was taken out from each mouse and cooled by immersion in a cold Ringer's solution^note 1) (at 0° C.) for 1 to 2 minutes, and then, coronal brain slices with a thickness of 400 μm were prepared using a microslicer (ZERO 1, Dosaka EM Co., Ltd.). […]
In a homemade perfusion chamber (Non-patent document 2) mounted on a heating-type xy stage (Zeiss Tempcontrol 37-2) of an inverted fluorescence microscope from Zeiss Axiovert 135 (100 W, a xenon light source), a 35-mm glass bottom culture dish^note 4) was placed, and a glass coverslip (neurons were placed thereon according to the method described in (A)) placed in the dish was perfused with a HEPES solution for recording at a rate of 1.3 mL/min. […]
In the fluorescence detection, a 450-490 nm standard bandpass excitation filter manufactured by Zeiss, Inc., a 510 nm dichroic mirror, and a 515-565 nm emission filter were used without using an ND filter, and as the objective lens, a Zeiss Plan Neofluar ×20 lens (NA 0.50) was used. […]

acutely isolated neurons = experiment: Application of mixed solution of 2-NBDG and 2-TRLG to acutely isolated neurons (real-time laser scanning confocal fluorescence microscope); format: cell-based, mouse; settings: mixed solution of 20 μM 2-TRLG and 100 μM 2-NBDG administered for 1 minute, 24° C., image at 1 minute after stopping the administration
Protocol: The preparation of acutely isolated neurons was performed in the same manner as in Example 1.
Then, 10 μL of this 2 mM solution was dissolved in 1 mL of a glucose-free HEPES buffer solution^note 6) containing 100 μM 2-NBDG so as to dilute the 2 mM solution to 100-fold, whereby a mixed solution of 20 μM 2-TRLG and 100 μM 2-NBDG was obtained.
3 mL of a HEPES solution^note 2) was added to a 35-mm glass bottom culture dish^note 4) having a glass bottom to which neurons were adhered, and further 3 mL of mineral oil (M8410, Sigma CO., Ltd.) was laminated thereon. […]
A total of three detectors (channels): a photomultiplier detector for light in a green wavelength range (PMT1) and a photomultiplier detector for light in a red wavelength range (PMT2), and also a detector for transmitted light (PMTTrans) were used simultaneously, and 512×512 pixel images were captured. The detection sensitivity was set as follows: PMT1: 868 V, PMT2: 868 V, and PMTtrans: 245 V. Incidentally, the optimal values of the detection wavelength ranges of green fluorescence (500-580 nm) and red fluorescence (580-740 nm) were selected not on the basis of an emission filter system, but on the basis of a system using a prism spectroscope and a slit in combination (standard of TCS SP5, Leica, Inc.). […]

Escherichia coli K12 = experiment: Incorporation of 2-NBDG or 2-NBDLG into Escherichia coli (evaluation for the state of Escherichia coli); format: cell-based; settings: for difference in fluorescence detection between 2-NBDG and 2-NBDLG: dead cells prepared by treating live cells with 70% ethanol at room temperature for 10 minutes; for fluorescence due to the incorporation into the cells: live cells, 50 μM, 37° C. for 10 minutes
Protocol: Escherichia coli K12 was cultured with shaking overnight at 37° C. A 1 mL portion of the culture was centrifuged to collect cells, and the cells were suspended in 1 mL of phosphate buffered saline (PBS, a mixed solution of 0.01 M phosphate buffer and 0.137 M NaCl at pH 7.4). A 90 μL portion of the suspension was taken out, and 10 μL of the 2-NBDG solution or the 2-NBDLG solution was added thereto to give a final concentration of 50 μM, and then, an incorporation reaction was allowed to proceed at 37° C. for 10 minutes. After the reaction, the cells were collected by centrifugation and resuspended in PBS, and the cells were microscopically observed (objective lens ×10) and recorded using a CCD camera for microscopic observation.

[2] = Fluorescence spectrum (maximum fluorescence wavelength); format: physicochemical
Description: When the case where a mixed liquid of 2-NBDG and 2-TRLG was used as the mixed liquid of a D-glucose derivative that has a fluorescent chromophore in the molecule and is specifically incorporated into cells and an L-glucose derivative that has, in the molecule, a fluorescent chromophore that emits fluorescence at a wavelength different from that of the fluorescence emitted by the D-glucose derivative that has a fluorescent chromophore in the molecule and is specifically incorporated into cells is cited as an example, the maximum fluorescence wavelength of the former is from 540 nm to 550 nm, and the maximum fluorescence wavelength of the latter is from 600 nm to 610 nm. Therefore, when the fluorescence at a wavelength in the vicinity of each of the maximum fluorescence wavelengths is detected for the solution obtained by mixing both glucose derivatives, the green fluorescence emitted by 2-NBDG and the red fluorescence emitted by 2-TRLG can be detected, respectively, and as a result of combining the both fluorescence spectra detected, yellow fluorescence can be detected. After administration of the mixed liquid of 2-NBDG and 2-TRLG to cells, when 2-NBDG is specifically incorporated into the cells, green fluorescence is detected from the inside of the cells. […] Therefore, by detecting the green fluorescence emitted by 2-NBDG after the mixed liquid of 2-NBDG and 2-TRLG is administered to cells, the specific incorporation of D-glucose into cells relative to L-glucose can be accurately evaluated in real time.
Incidentally, the validity of this evaluation result is supported by the result that when the mixed solution of 20 μM 2-TRLG and 100 μM 2-NBDG is used, green fluorescence emitted by 2-NBDG can be detected by detecting fluorescence at around 540 nm, and red fluorescence emitted by 2-TRLG can be detected by detecting fluorescence at around 610 nm (in the case of pH 7.4, the maximum fluorescence wavelength of 2-NBDG is 540 nm, and the maximum fluorescence wavelength of 2-TRLG is 610 nm, see FIG. 4). […]

[3] = 2-NBDG, 2-TRLG and 2-NMALG mixed at 1:1:25 (molar ratio), excited by laser light at 405 nm (FIG. 6)

Row | SMILES | green fluorescence from the cell (incorporation into the cell) [1] | fluorescence based on incorporation into the cell (acutely isolated neurons) | difference in fluorescence detection between 2-NBDG and 2-NBDLG (Escherichia coli K12) | fluorescence due to the incorporation into the cells (Escherichia coli K12) | maximum fluorescence wavelength [2, 3] | maximum fluorescence wavelength ([2]; pH 7.4, mixed solution of 20 μM 2-TRLG and 100 μM 2-NBDG (FIG. 4)) [nm]
1 | O=[N+]([O-])c1ccc(NC2C(O)OC(CO)[C@@H](O)C2O)c2nonc12 (stereo partly drawn) [2-NBDG, 2-[N-(7-nitrobenz-2-oxa-1,3-diazol-4-yl)amino]-2-deoxy-D-glucose] | green fluorescence from the cell was observed | only green fluorescence derived from 2-NBDG was observed | a difference in the result of the fluorescence detection for 2-NBDG and 2-NBDLG was not observed | significant fluorescence due to the incorporation of 2-NBDG into the cells could be detected | around 540 nm | 540
2 | O=[N+]([O-])c1ccc(NC2C(O)OC(CO)[C@H](O)C2O)c2nonc12 (stereo partly drawn) [2-NBDLG, 2-[N-(7-nitrobenz-2-oxa-1,3-diazol-4-yl)amino]-2-deoxy-L-glucose] | almost no green fluorescence from the cell was observed |  | a difference in the result of the fluorescence detection for 2-NBDG and 2-NBDLG was not observed | could not be detected |  | 
3 | CNc1ccccc1C(=O)N[C@H](C=O)[C@H](O)[C@@H](O)[C@@H](O)CO [2-NMALG, 2-[N-2-(N′-methylamino)benzoylamino]-2-deoxy-L-glucose] |  |  |  |  | around 450 nm | 
